Laboratory results published in patent US20160122386A1, “V1A RECEPTOR AGONISTS” (FERRING B.V., priority 2014, published 2016).
pEC50: −log10 of the molar value. Starred links: 1 amine or outer side, 2 acyl side, 3 side chain; linkers in the order of their positions; H or OH if unused. Positions of bridges follow the written chain, without caps; N, C: chain ends. Non-standard residues stand in square brackets, D forms with d. Residues, ends and D or L forms follow the SMILES beside them. Chains are numbered I, II in the order given. *: point of attachment. d(isoGln) = NC(=O)[C@@H](CCC(=O)[*:2])N[*:1]; isoGln = NC(=O)[C@H](CCC(=O)[*:2])N[*:1]; d(εLys) = N[C@H](CCCCN[*:1])C(=O)[*:2]; εLys = N[C@@H](CCCCN[*:1])C(=O)[*:2]; Aad = N[C@@H](CCCC(=O)O)C(=O)O; Cit = NC(=O)NCCC[C@H](N)C(=O)O; Dab = NCC[C@H](N)C(=O)O; PhAc = O=C(Cc1ccccc1)*

Biological target: T1, human V1aR (Homo sapiens, UniProt P37288)
T1 construct: expressed in transfected cells
T1 sequence (P37288 whole entry): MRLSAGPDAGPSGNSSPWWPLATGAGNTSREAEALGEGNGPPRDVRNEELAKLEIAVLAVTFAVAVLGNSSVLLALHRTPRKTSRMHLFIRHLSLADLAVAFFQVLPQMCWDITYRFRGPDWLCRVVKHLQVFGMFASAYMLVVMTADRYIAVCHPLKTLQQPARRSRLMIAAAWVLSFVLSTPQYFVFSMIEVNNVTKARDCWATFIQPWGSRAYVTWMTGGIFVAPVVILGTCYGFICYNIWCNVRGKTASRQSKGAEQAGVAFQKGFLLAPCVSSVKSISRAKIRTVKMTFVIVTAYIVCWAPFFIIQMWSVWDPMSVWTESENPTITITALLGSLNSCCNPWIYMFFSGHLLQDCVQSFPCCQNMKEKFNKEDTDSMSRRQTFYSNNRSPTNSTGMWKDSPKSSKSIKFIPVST
Test: Agonist activity at vasopressin V1a receptors, cell-based FLIPR calcium assay
Settings: for Emax: read-out: Efficacy Avg. (%)
In short: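 HEK Flp-In cells stably expressing human V1aR were loaded with Calcium 4 dye plus 2.5 mM probenecid for 1 h at 37 °C, then given half-log compound concentrations (final 0.1% DMSO) on FLIPR Tetra.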

Structure (SMILES) | pEC50 | Emax [%]
CC[C@H](C)[C@@H]1NC(=O)[C@H](Cc2ccccc2)NC(=O)[C@@H](N)CSSC[C@@H](C(=O)N2CCC[C@H]2C(=O)N[C@@H](CCNC(=O)[C@@H](N)CCCCNC(=O)CC[C@H](NC(=O)[C@H](CCCNC(=N)N)NC(=O)[C@@H]2CCCN2C(=O)[C@H](CCCNC(N)=O)NC(=O)[C@H](CC(N)=O)NC(=O)[C@H](CCC(N)=O)NC(=O)[C@H](Cc2ccccc2)NC(=O)[C@@H](Cc2ccc(OC)cc2)NC(=O)Cc2ccccc2)C(N)=O)C(=O)NCC(N)=O)NC(=O)[C@H](CC(N)=O)NC(=O)[C@H](CCCC(N)=O)NC1=O [Compound 47] (I: H-CFI[Aad](NH2)NCP[Dab]G-NH2 / II: PhAc-[dY](Me)FQN[Cit]PR[isoGln][εLys]; disulfide I:1-I:6 (inferred); amide I:8-II:C (inferred)) | 8.74 | 45
CC[C@H](C)[C@@H]1NC(=O)[C@H](Cc2ccccc2)NC(=O)[C@@H](O)CSSC[C@@H](C(=O)N2CCC[C@H]2C(=O)N[C@@H](CCNC(=O)[C@@H](N)CCCCNC(=O)CC[C@H](NC(=O)[C@H](CCCNC(=N)N)NC(=O)[C@@H]2CCCN2C(=O)[C@H](CCCNC(N)=O)NC(=O)[C@H](CC(N)=O)NC(=O)[C@H](CCC(N)=O)NC(=O)[C@H](Cc2ccccc2)NC(=O)[C@@H](Cc2ccc(OC)cc2)NC(=O)Cc2ccccc2)C(N)=O)C(=O)NCC(N)=O)NC(=O)[C@H](CC(N)=O)NC(=O)[C@H](CCCC(N)=O)NC1=O [Compound 48] | 8.85 | 67
CC[C@H](C)[C@@H]1NC(=O)[C@H](Cc2ccccc2)NC(=O)[C@@H](N)CSSC[C@@H](C(=O)N2CCC[C@H]2C(=O)N[C@@H](CCNC(=O)[C@H](N)CCCCNC(=O)CC[C@H](NC(=O)[C@H](CCCNC(=N)N)NC(=O)[C@@H]2CCCN2C(=O)[C@H](CCCNC(N)=O)NC(=O)[C@H](CC(N)=O)NC(=O)[C@H](CCC(N)=O)NC(=O)[C@H](Cc2ccccc2)NC(=O)[C@@H](Cc2ccc(OC)cc2)NC(=O)Cc2ccccc2)C(N)=O)C(=O)NCC(N)=O)NC(=O)[C@H](CC(N)=O)NC(=O)[C@H](CCC(N)=O)NC1=O [Compound 49] (I: H-CFIQNCP[Dab]G-NH2 / II: PhAc-[dY](Me)FQN[Cit]PR[isoGln][d(εLys)]; disulfide I:1-I:6; amide I:8-II:C) | 9.12 | 55
CC[C@H](C)[C@@H]1NC(=O)[C@H](Cc2ccccc2)NC(=O)[C@@H](N)CSSC[C@@H](C(=O)N2CCC[C@H]2C(=O)N[C@@H](CCNC(=O)[C@@H](N)CCCCNC(=O)CC[C@H](NC(=O)[C@H](CCCNC(=N)N)NC(=O)[C@@H]2CCCN2C(=O)[C@H](C)NC(=O)[C@H](CC(N)=O)NC(=O)[C@H](CCC(N)=O)NC(=O)[C@H](Cc2ccccc2)NC(=O)[C@@H](Cc2ccc(OC)cc2)NC(=O)Cc2ccccc2)C(N)=O)C(=O)NCC(N)=O)NC(=O)[C@H](CC(N)=O)NC(=O)[C@H](CCCC(N)=O)NC1=O [Compound 50] (I: H-CFI[Aad](NH2)NCP[Dab]G-NH2 / II: PhAc-[dY](Me)FQNAPR[isoGln][εLys]; disulfide I:1-I:6; amide I:8-II:C) | 9.05 | 40
CC[C@H](C)[C@@H]1NC(=O)[C@H](Cc2ccccc2)NC(=O)[C@@H](N)CSSC[C@@H](C(=O)N2CCC[C@H]2C(=O)N[C@@H](CCNC(=O)[C@H](N)CCCCNC(=O)CC[C@H](NC(=O)[C@H](CCCNC(=N)N)NC(=O)[C@@H]2CCCN2C(=O)[C@H](C)NC(=O)[C@H](CC(N)=O)NC(=O)[C@H](CCC(N)=O)NC(=O)[C@H](Cc2ccccc2)NC(=O)[C@@H](Cc2ccc(OC)cc2)NC(=O)Cc2ccccc2)C(N)=O)C(=O)NCC(N)=O)NC(=O)[C@H](CC(N)=O)NC(=O)[C@H](CCCC(N)=O)NC1=O [Compound 51] (I: H-CFI[Aad](NH2)NCP[Dab]G-NH2 / II: PhAc-[dY](Me)FQNAPR[isoGln][d(εLys)]; disulfide I:1-I:6; amide I:8-II:C) | 8.85 | 43
CC[C@H](C)[C@@H]1NC(=O)[C@H](Cc2ccccc2)NC(=O)[C@@H](N)CSSC[C@@H](C(=O)N2CCC[C@H]2C(=O)N[C@@H](CCNC(=O)[C@H](N)CCCCNC(=O)CC[C@H](NC(=O)[C@H](CCCNC(=N)N)NC(=O)[C@@H]2CCCN2C(=O)[C@H](CCCNC(N)=O)NC(=O)[C@H](CC(N)=O)NC(=O)[C@H](CCC(N)=O)NC(=O)[C@H](Cc2ccccc2)NC(=O)[C@@H](Cc2ccc(OC)cc2)NC(=O)Cc2ccccc2)C(N)=O)C(=O)NCC(N)=O)NC(=O)[C@H](CC(N)=O)NC(=O)[C@H](CCCC(N)=O)NC1=O [Compound 52] (I: H-CFI[Aad](NH2)NCP[Dab]G-NH2 / II: PhAc-[dY](Me)FQN[Cit]PR[isoGln][d(εLys)]; disulfide I:1-I:6; amide I:8-II:C) | 8.82 | 47
CC[C@H](C)[C@@H]1NC(=O)[C@H](Cc2ccccc2)NC(=O)[C@@H](N)CSSC[C@@H](C(=O)N2CCC[C@H]2C(=O)N[C@@H](CCNC(=O)[C@@H](N)CCCCNC(=O)CC[C@@H](NC(=O)[C@H](CCCNC(=N)N)NC(=O)[C@@H]2CCCN2C(=O)[C@H](C)NC(=O)[C@H](CC(N)=O)NC(=O)[C@H](CCC(N)=O)NC(=O)[C@H](Cc2ccccc2)NC(=O)[C@@H](Cc2ccc(OC)cc2)NC(=O)Cc2ccccc2)C(N)=O)C(=O)NCC(N)=O)NC(=O)[C@H](CC(N)=O)NC(=O)[C@H](CCCC(N)=O)NC1=O [Compound 53] (I: H-CFI[Aad](NH2)NCP[Dab]G-NH2 / II: PhAc-[dY](Me)FQNAPR[d(isoGln)][εLys]; disulfide I:1-I:6; amide I:8-II:C) | 8.77 | 43
CC[C@H](C)[C@@H]1NC(=O)[C@H](Cc2ccccc2)NC(=O)[C@@H](N)CSSC[C@@H](C(=O)N2CCC[C@H]2C(=O)N[C@@H](CCNC(=O)[C@@H](N)CCCCNC(=O)CC[C@@H](NC(=O)[C@H](CCCNC(=N)N)NC(=O)[C@@H]2CCCN2C(=O)[C@H](C)NC(=O)[C@H](CC(N)=O)NC(=O)[C@H](CCC(N)=O)NC(=O)[C@H](Cc2ccccc2)NC(=O)[C@@H](Cc2ccc(OC)cc2)NC(=O)Cc2ccccc2)C(N)=O)C(=O)NCC(N)=O)NC(=O)[C@H](CC(N)=O)NC(=O)[C@H](CCC(N)=O)NC1=O [Compound 54] (I: H-CFIQNCP[Dab]G-NH2 / II: PhAc-[dY](Me)FQNAPR[d(isoGln)][εLys]; disulfide I:1-I:6; amide I:8-II:C) | 8.85 | 51
CC[C@H](C)[C@@H]1NC(=O)[C@H](Cc2ccccc2)NC(=O)[C@@H](N)CSSC[C@@H](C(=O)N2CCC[C@H]2C(=O)N[C@@H](CCNC(=O)[C@H](N)CCCCNC(=O)CC[C@@H](NC(=O)[C@H](CCCNC(=N)N)NC(=O)[C@@H]2CCCN2C(=O)[C@H](CCCNC(N)=O)NC(=O)[C@H](CC(N)=O)NC(=O)[C@H](CCC(N)=O)NC(=O)[C@H](Cc2ccccc2)NC(=O)[C@@H](Cc2ccc(OC)cc2)NC(=O)Cc2ccccc2)C(N)=O)C(=O)NCC(N)=O)NC(=O)[C@H](CC(N)=O)NC(=O)[C@H](CCC(N)=O)NC1=O [Compound 55] (I: H-CFIQNCP[Dab]G-NH2 / II: PhAc-[dY](Me)FQN[Cit]PR[d(isoGln)][d(εLys)]; disulfide I:1-I:6; amide I:8-II:C) | – | 56
CC[C@H](C)[C@@H]1NC(=O)[C@H](Cc2ccccc2)NC(=O)[C@@H](N)CSSC[C@@H](C(=O)N2CCC[C@H]2C(=O)N[C@@H](CCNC(=O)[C@H](N)CCCCNC(=O)CC[C@@H](NC(=O)[C@H](CCCNC(=N)N)NC(=O)[C@@H]2CCCN2C(=O)[C@H](C)NC(=O)[C@H](CC(N)=O)NC(=O)[C@H](CCC(N)=O)NC(=O)[C@H](Cc2ccccc2)NC(=O)[C@@H](Cc2ccc(OC)cc2)NC(=O)Cc2ccccc2)C(N)=O)C(=O)NCC(N)=O)NC(=O)[C@H](CC(N)=O)NC(=O)[C@H](CCC(N)=O)NC1=O [Compound 56] (I: H-CFIQNCP[Dab]G-NH2 / II: PhAc-[dY](Me)FQNAPR[d(isoGln)][d(εLys)]; disulfide I:1-I:6; amide I:8-II:C) | 8.74 | 60
CC[C@H](C)[C@@H]1NC(=O)[C@H](Cc2ccccc2)NC(=O)[C@@H](N)CSSC[C@@H](C(=O)N2CCC[C@H]2C(=O)N[C@@H](CCNC(=O)[C@@H](N)CCCCNC(=O)CC[C@@H](NC(=O)[C@H](CCCNC(=N)N)NC(=O)[C@@H]2CCCN2C(=O)[C@H](CCCNC(N)=O)NC(=O)[C@H](CC(N)=O)NC(=O)[C@H](CCC(N)=O)NC(=O)[C@H](Cc2ccccc2)NC(=O)[C@@H](Cc2ccc(OC)cc2)NC(=O)Cc2ccccc2)C(N)=O)C(=O)NCC(N)=O)NC(=O)[C@H](CC(N)=O)NC(=O)[C@H](CCC(N)=O)NC1=O [Compound 57] (I: H-CFIQNCP[Dab]G-NH2 / II: PhAc-[dY](Me)FQN[Cit]PR[d(isoGln)][εLys]; disulfide I:1-I:6; amide I:8-II:C) | 8.85 | 63
CC[C@H](C)[C@@H]1NC(=O)[C@H](Cc2ccccc2)NC(=O)[C@@H](N)CSSC[C@@H](C(=O)N2CCC[C@H]2C(=O)N[C@@H](CCNC(=O)[C@H](N)CCCCNC(=O)[C@H](CCCCNC(C)=O)NC(=O)CC[C@H](NC(=O)[C@H](CCCNC(=N)N)NC(=O)[C@@H]2CCCN2C(=O)[C@H](C)NC(=O)[C@H](CC(N)=O)NC(=O)[C@H](CCC(N)=O)NC(=O)[C@H](Cc2ccccc2)NC(=O)[C@@H](Cc2ccc(OC)cc2)NC(=O)Cc2ccccc2)C(N)=O)C(=O)NCC(N)=O)NC(=O)[C@H](CC(N)=O)NC(=O)[C@H](CCCC(N)=O)NC1=O [Compound 58] (I: H-CFI[Aad](NH2)NCP[Dab]G-NH2 / II: PhAc-[dY](Me)FQNAPR[isoGln]K(Ac)[d(εLys)]; disulfide I:1-I:6; amide I:8-II:C) | 8.59 | 26
CC[C@H](C)[C@@H]1NC(=O)[C@H](Cc2ccccc2)NC(=O)[C@@H](N)CSSC[C@@H](C(=O)N2CCC[C@H]2C(=O)N[C@@H](CCNC(=O)[C@H](N)CCCCNC(=O)CC[C@H](NC(=O)[C@H](CCCNC(=N)N)NC(=O)[C@@H]2CCCN2C(=O)[C@H](CCN)NC(=O)[C@H](CC(N)=O)NC(=O)[C@H](CCC(N)=O)NC(=O)[C@H](Cc2ccccc2)NC(=O)[C@@H](Cc2ccc(OC)cc2)NC(=O)Cc2ccccc2)C(N)=O)C(=O)NCC(N)=O)NC(=O)[C@H](CC(N)=O)NC(=O)[C@H](CC(N)=O)NC1=O [Compound 59] (I: H-CFINNCP[Dab]G-NH2 / II: PhAc-[dY](Me)FQN[Dab]PR[isoGln][d(εLys)]; disulfide I:1-I:6; amide I:8-II:C) | – | 26
